From paper PMC9130538, “Amino acids in transmembrane helix 1 confer major functional differences between human and mouse orthologs of the polyspecific membrane transporter OCT1” (The Journal of Biological Chemistry, 2022)

Assays:
human OCT1 = biological target: T1, human OCT1 (Homo sapiens, UniProt O15245); assay: Cellular uptake by HEK293 cells overexpressing human OCT1 (wildtype)
T1 sequence (O15245 1-554): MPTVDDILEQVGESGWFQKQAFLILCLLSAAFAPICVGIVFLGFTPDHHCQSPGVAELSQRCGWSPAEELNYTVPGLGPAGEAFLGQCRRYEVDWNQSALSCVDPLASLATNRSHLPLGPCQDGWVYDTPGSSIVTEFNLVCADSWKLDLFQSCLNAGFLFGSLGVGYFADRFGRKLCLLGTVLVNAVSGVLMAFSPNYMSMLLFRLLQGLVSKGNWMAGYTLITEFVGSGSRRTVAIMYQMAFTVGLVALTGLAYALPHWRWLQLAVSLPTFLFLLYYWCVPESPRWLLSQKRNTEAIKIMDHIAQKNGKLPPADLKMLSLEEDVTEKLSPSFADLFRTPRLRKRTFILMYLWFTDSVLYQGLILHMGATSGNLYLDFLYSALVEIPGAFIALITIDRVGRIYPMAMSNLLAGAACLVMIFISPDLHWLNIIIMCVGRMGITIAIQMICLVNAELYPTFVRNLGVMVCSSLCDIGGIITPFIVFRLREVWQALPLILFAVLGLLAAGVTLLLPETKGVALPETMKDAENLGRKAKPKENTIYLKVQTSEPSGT
Description: Generation and characterization of these cell lines has been described in detail before ([34], [48], [49]). Cells were cultured in Dulbecco’s Modified Eagle’s Medium supplemented with 10% fetal bovine serum, 100 U/ml penicillin, and 100 μg/ml streptomycin at 37 °C and 5% CO2 and were passaged twice a week.
At 48 h prior to the experiment, 6 × 10^5 cells were seeded per well in 12-well plates. When using transiently transfected cells, 5 × 10^5 T-REx-293 cells (Life Technologies) were seeded per well in 12-well plates 72 h prior to the experiment, and they were transfected 24 h later as described previously. Twelve-well plates were precoated with poly-D-lysine.
(§1) Cellular uptake experiments were performed at 37 °C and pH 7.4 using HBSS supplemented with 10 mM Hepes (in the following referred to as HBSS+). Cells were washed with 1 ml prewarmed (37 °C) HBSS+, and the uptake was initiated by adding 400 μl of prewarmed HBSS+ containing the substrate. Uptake was allowed for exactly 2 min and afterward stopped by adding 2 ml ice-cold HBSS+. Cells were washed twice with 2 ml ice-cold HBSS+ and lysed with 80% acetonitrile supplemented with internal standard, 0.1 N NaOH/0.1% SDS, or radioimmunoprecipitation buffer for LC–MS/MS, liquid scintillation counting, or fluorescence spectroscopy detection, respectively. Intracellular substrate concentrations were measured as described in the following and were then normalized to the amount of total protein in the samples as measured using the bicinchoninic acid assay ([51]).
For LC–MS/MS quantification of intracellular substrate concentrations, the cell lysate was centrifuged at 16,000g for 15 min, and 350 μl of supernatant was evaporated to dryness under nitrogen flow at 40 °C. The sample was reconstituted with 200 μl 0.1% formic acid, and between 2 and 30 μl were injected into the LC–MS/MS system (Table S1).
An API4000 QTRAP tandem mass spectrometer with ESI interface (AB SCIEX) was used, coupled to a Shimadzu Nexera X2 UHPLC system with LC 30AD pumps and SiL 30AC autosampler (Shimadzu).
Intracellular concentrations of radioactively labeled substrates MPP^+ and TEA^+ were quantified using liquid scintillation counting. To this end, 400 μl cell lysate was transferred into a 20 ml scintillation vial, 9 ml Aquasafe 500 Plus liquid scintillator (both Zinsser Analytics) was added, and the sample was measured in the Scintillation Counter LS6500 (Beckman Coulter).
For both analyses, SPSS Statistics, version 28 (SPSS, Inc, IBM) was used.

human OCT1 Cys36Tyr = biological target: T2, human OCT1 Cys36Tyr (Homo sapiens, UniProt O15245, C36Y); assay: Uptake by HEK293 cells overexpressing Cys36Tyr human OCT1; format: cell-based; conditions: 200 μM trospium, 2 min, transient transfection
T2 construct: expressed in transfected cells
Description: (§2) Human–mouse chimeric OCT1 constructs were generated using the overlap extension method ([50]) and have been characterized before ([34]). […] All constructs were validated by capillary sequencing of the complete open reading frame of OCT1 before transfection into HEK293 cells.
(§3) For transient transfection of OCT1 constructs into HEK293 cells for uptake experiments, 5 × 10^5 T-REx-293 cells (Life Technologies) were seeded per well in 12-well plates precoated with poly-D-lysine. […] At 48 h later, transfection efficacy was assessed microscopically by visualizing the GFP signal of the cotransfected GFP vector, and the cells were subsequently used for uptake experiments. […]
as §1, with “Cells were washed with 1 ml prewarmed (37 °C) HBSS+, and the uptake was initiated by adding 400 μl of prewarmed HBSS+ containing the substrate. Uptake was allowed for exactly 2 min and afterward stopped by adding 2 ml ice-cold HBSS+.” left out, “([51]). […]” for “([51]).”

[1] = human, estimated based on clinical data, ref [39]; cited from earlier work
[2] = biological target: T3, human OCT1 with mouse TMH1 (human–mouse chimeric OCT1) (Homo sapiens, UniProt O15245, A31S/C36Y/F32L/I24L/L28I); assay: Uptake by HEK293 cells transiently overexpressing chimeric human OCT1 carrying mouse TMH1; format: cell-based; conditions: 200 μM trospium, 2 min, transient transfection
T3 construct: expressed in transfected cells
Description: as §2, §3
as §1, with “Cells were washed with 1 ml prewarmed (37 °C) HBSS+, and the uptake was initiated by adding 400 μl of prewarmed HBSS+ containing the substrate. Uptake was allowed for exactly 2 min and afterward stopped by adding 2 ml ice-cold HBSS+.” left out, “([51]). […]” for “([51]).”

human OCT1 Phe32Leu = biological target: T4, human OCT1 Phe32Leu (Homo sapiens, UniProt O15245, F32L); assay: Uptake by HEK293 cells overexpressing Phe32Leu human OCT1; format: cell-based; conditions: 200 μM trospium, 2 min, transient transfection, versus human wildtype
T4 construct: expressed in transfected cells
Description: as §2, §3
as §1, with “Cells were washed with 1 ml prewarmed (37 °C) HBSS+, and the uptake was initiated by adding 400 μl of prewarmed HBSS+ containing the substrate. Uptake was allowed for exactly 2 min and afterward stopped by adding 2 ml ice-cold HBSS+.” left out, “([51]). […]” for “([51]).”

mouse Oct1 Leu32Phe = biological target: T5, mouse Oct1 Leu32Phe (Mus musculus, UniProt O08966, L32F); assay: Uptake by HEK293 cells overexpressing Leu32Phe mouse Oct1; format: cell-based; conditions: 200 μM trospium, 2 min, transient transfection
T5 construct: expressed in transfected cells
T5 sequence (O08966 whole entry L32F): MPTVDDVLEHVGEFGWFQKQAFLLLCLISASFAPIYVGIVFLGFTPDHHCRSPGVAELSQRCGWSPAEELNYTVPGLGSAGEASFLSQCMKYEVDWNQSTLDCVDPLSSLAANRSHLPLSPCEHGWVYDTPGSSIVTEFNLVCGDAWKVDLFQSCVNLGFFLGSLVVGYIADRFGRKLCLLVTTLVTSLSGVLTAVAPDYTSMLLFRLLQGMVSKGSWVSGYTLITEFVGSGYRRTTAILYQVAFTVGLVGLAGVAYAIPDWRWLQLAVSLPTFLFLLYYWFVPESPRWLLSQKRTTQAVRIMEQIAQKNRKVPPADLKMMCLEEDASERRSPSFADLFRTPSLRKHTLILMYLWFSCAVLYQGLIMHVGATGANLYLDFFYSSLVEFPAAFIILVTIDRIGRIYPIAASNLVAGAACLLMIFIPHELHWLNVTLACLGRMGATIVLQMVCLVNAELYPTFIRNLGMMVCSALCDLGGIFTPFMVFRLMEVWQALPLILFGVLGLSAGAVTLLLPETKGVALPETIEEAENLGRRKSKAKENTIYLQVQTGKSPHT
Description: as §2, §3
as §1, with “Cells were washed with 1 ml prewarmed (37 °C) HBSS+, and the uptake was initiated by adding 400 μl of prewarmed HBSS+ containing the substrate. Uptake was allowed for exactly 2 min and afterward stopped by adding 2 ml ice-cold HBSS+.” left out, “([51]). […]” for “([51]).”

[3] = human versus mouse OCT1, stably transfected HEK293

With O=C(O[C@H]1C[C@H]2CC[C@@H](C1)[N+]21CCCC1)C(O)(c1ccccc1)c1ccccc1 [Trospium] as the compound, how does the “difference in uptake between human and mouse OCT1 at low concentration” value (human OCT1; 100 nM, 2 min, stably transfected HEK293) read?
The value was “did not see differences in uptake”.

What about the “fold higher capacity (vmax) of human OCT1 than mouse Oct1” value (human OCT1; [3]) of the same compound?
Its value is 9.0 fold.

What about the “fold lower affinity (KM) of human OCT1 than mouse Oct1 (higher affinity of mouse Oct1)” value (human OCT1; [3]) of the same compound?
The value was 10.6 fold.

And the “effect of Cys36Tyr on uptake of trospium” value (human OCT1 Cys36Tyr)?
Its value is “did not affect”.

What about the “clinically relevant (plasma) concentration” value [1] of the same compound?
The value was 13.3 nM.

What about the “decrease of trospium uptake compared with human wildtype” value [2] of the same compound?
The value was 91%.

What about the “decrease of trospium uptake by Phe32Leu in human OCT1” value (human OCT1 Phe32Leu) of the same compound?
Its value is 79%.

What about the “trospium uptake exceeding the uptake of the human ortholog” value (mouse Oct1 Leu32Phe; versus human wildtype OCT1) of the same compound?
The value was 2.8 fold.

And the “increase of trospium uptake by Leu32Phe in mouse Oct1” value (mouse Oct1 Leu32Phe; versus mouse wildtype)?
Its value is “sevenfold”.
